Results: ChEMBL document CHEMBL2396582, “Large conductance Ca(2+)-activated K(+) channel (BKCa) activating properties of a series of novel N-arylbenzamides: Channel subunit dependent effects” (Bioorg Med Chem, 2013)
Activity calls are given as the source filed them. No cut-off for these calls is given here.

How the values were obtained:
Format in all cases: cell-based
[1] = target: Calcium-activated potassium channel subunit alpha-1 (Homo sapiens) (UniProt Q12791); experiment: Activation of human BKCA alpha channel expressed in HEK293 cells assessed as increase in intracellular calcium level at 100 uM after 30 mins
[2] = target: Calcium-activated potassium channel subunit alpha-1 (Homo sapiens) (UniProt Q12791); experiment: Activation of human BKCA alpha channel expressed in HEK293 cells assessed as increase of rubidium efflux at 100 uM after 10 mins in presence of iberiotoxin
[3] = target: T1, Calcium-activated potassium channel alpha/beta 1 (Homo sapiens) (UniProt Q12791+Q16558); experiment: Activation of human BKCA alpha/beta1 channel expressed in HEK293 cells assessed as increase of rubidium efflux after 10 mins relative to control
[4] = target: T1, Calcium-activated potassium channel alpha/beta 1 (Homo sapiens); experiment: Activation of human BKCA alpha/beta1 channel expressed in HEK293 cells assessed as increase of rubidium efflux after 10 mins in presence paxilline
[5] = target: Calcium-activated potassium channel subunit alpha-1 (Homo sapiens) (UniProt Q12791); experiment: Activation of human BKCA alpha channel expressed in HEK293 cells assessed as increase of rubidium efflux at 100 uM after 10 mins in presence of paxilline
[6] = target: T1, Calcium-activated potassium channel alpha/beta 1 (Homo sapiens); experiment: Activation of human BKCA alpha/beta1 channel expressed in HEK293 cells assessed as increase of rubidium efflux after 10 mins
[7] = target: Calcium-activated potassium channel subunit alpha-1 (Homo sapiens) (UniProt Q12791); experiment: Activation of human BKCA alpha channel expressed in HEK293 cells assessed as increase of rubidium efflux after 10 mins
[8] = target: Calcium-activated potassium channel subunit alpha-1 (Homo sapiens) (UniProt Q12791); experiment: Activation of human BKCA alpha channel expressed in HEK293 cells assessed as increase of rubidium efflux after 10 mins relative to control
[9] = target: T1, Calcium-activated potassium channel alpha/beta 1 (Homo sapiens); experiment: Activation of human BKCA alpha/beta1 channel expressed in HEK293 cells assessed as increase of rubidium efflux after 10 mins in presence iberiotoxin
[10] = target: Calcium-activated potassium channel subunit alpha-1 (Homo sapiens) (UniProt Q12791); experiment: Activation of human BKCA alpha channel expressed in HEK293 cells assessed as increase in intracellular calcium level at 50 uM after 30 mins
[11] = target: Calcium-activated potassium channel subunit alpha-1 (Homo sapiens) (UniProt Q12791); experiment: Activation of human BKCA alpha channel expressed in HEK293 cells assessed as increase in intracellular calcium level at 0.1 uM after 30 mins
[12] = target: Calcium-activated potassium channel subunit alpha-1 (Homo sapiens) (UniProt Q12791); experiment: Activation of human BKCA alpha channel expressed in HEK293 cells assessed as increase in intracellular calcium level at 10 uM after 30 mins

Chain of Calcium-activated potassium channel subunit alpha-1 (Homo sapiens) (Q12791 whole entry): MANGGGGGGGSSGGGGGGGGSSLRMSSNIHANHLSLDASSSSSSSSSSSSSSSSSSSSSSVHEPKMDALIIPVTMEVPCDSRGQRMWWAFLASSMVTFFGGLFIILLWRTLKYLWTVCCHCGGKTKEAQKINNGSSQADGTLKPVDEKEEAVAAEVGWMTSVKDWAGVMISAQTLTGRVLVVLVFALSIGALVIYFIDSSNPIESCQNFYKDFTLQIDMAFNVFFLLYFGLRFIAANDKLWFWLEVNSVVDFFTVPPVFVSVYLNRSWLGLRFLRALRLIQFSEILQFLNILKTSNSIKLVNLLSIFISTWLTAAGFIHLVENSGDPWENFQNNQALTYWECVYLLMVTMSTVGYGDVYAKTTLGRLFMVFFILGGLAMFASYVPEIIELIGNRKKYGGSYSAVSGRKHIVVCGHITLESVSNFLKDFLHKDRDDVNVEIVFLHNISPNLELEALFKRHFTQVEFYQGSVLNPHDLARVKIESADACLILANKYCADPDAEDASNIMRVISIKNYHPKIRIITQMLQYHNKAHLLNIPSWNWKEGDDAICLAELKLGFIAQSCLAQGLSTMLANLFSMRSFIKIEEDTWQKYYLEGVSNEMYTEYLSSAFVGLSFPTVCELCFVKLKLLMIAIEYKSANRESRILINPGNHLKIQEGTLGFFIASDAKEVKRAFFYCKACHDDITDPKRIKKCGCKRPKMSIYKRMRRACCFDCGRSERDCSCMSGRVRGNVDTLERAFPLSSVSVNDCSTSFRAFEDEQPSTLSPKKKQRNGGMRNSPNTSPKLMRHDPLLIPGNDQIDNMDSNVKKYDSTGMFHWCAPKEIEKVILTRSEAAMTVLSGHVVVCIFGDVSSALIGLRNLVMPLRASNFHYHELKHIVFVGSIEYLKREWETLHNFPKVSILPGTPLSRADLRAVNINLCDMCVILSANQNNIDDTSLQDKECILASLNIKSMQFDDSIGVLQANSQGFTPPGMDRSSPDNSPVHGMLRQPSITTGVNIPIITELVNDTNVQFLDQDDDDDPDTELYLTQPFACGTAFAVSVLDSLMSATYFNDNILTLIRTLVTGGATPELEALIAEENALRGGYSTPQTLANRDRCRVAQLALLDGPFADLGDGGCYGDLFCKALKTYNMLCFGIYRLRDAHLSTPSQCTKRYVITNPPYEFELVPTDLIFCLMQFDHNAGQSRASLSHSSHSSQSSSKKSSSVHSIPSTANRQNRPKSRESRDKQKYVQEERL

| Compound | Activity [1] | Activity [2] | Emax [3] | Activity [4] | Activity [5] | EC40 [6] | EC40 [7] | Emax [8] | Activity [9] | Activity [10] | Activity [11] | Activity [12] |
| --- | --- | --- | --- | --- | --- | --- | --- | --- | --- | --- | --- | --- |
| CCOc1ccccc1C(=O)Nc1cc(Cl)ccc1O | 6.2% | inactive | 99.5% | inactive | inactive | 0.12 µM | 0.21 µM | 69.9% | inactive |  |  |  |
| COc1ccc(Cl)cc1C(=O)Nc1cccnc1 |  | inactive | 68.8% | inactive | inactive | 3.47 µM | 0.31 µM | 72.5% | inactive |  |  |  |
| C=C[C@@]1(C)CC(=O)[C@]2(O)[C@@]3(C)[C@@H](O)CCC(C)(C)[C@@H]3[C@H](O)[C@H](OC(C)=O)[C@@]2(C)O1 |  |  |  |  |  |  |  |  |  | 22.3% |  |  |
| Cc1ccc(NC(=O)c2ccccc2O)c([N+](=O)[O-])c1 |  | inactive | 54.4% | inactive | inactive | 1.41 µM | 0.56 µM | 86.4% | inactive |  |  |  |
| Cc1ccccc1C(=O)Nc1cc(Cl)ccc1O |  | inactive | 56.8% | inactive | inactive | 3.63 µM | 2.95 µM | 59.7% | inactive |  |  |  |
| CC(C)[C@@]1(O)[C@@H](OC(=O)c2cc[nH]c2)[C@@]2(O)[C@]3(C)C[C@@]4(O)O[C@@]5([C@H](O)[C@@H](C)CC[C@]35O)[C@@]2(O)[C@@]41C |  |  |  |  |  |  |  |  |  |  | 38.1% |  |
| COc1ccc(Cl)cc1C(=O)Nc1ccccn1 |  | inactive | 42% | inactive | inactive | 46.8 µM | 4.47 µM | 49.1% | inactive |  |  |  |
| COc1ccc(Cl)cc1C(=O)Nc1ccncc1 |  | inactive | 65.1% | inactive | inactive | 4.16 µM | 1.12 µM | 99.2% | inactive |  |  |  |
| O=C(Nc1cc(Cl)ccc1O)c1ccccc1 |  | inactive | 32.9% | inactive | inactive |  | 1.41 µM | 62.5% | inactive |  |  |  |
| O=c1[nH]c2cc(C(F)(F)F)ccc2n1-c1cc(C(F)(F)F)ccc1O | 5.3% | inactive | 76.6% | inactive | inactive | 0.79 µM | 0.35 µM | 61.7% | inactive |  |  |  |
| CNc1ccc2oc(C[C@H]3O[C@@]4(CC[C@H]3C)O[C@H]([C@H](C)C(=O)c3ccc[nH]3)[C@H](C)C[C@H]4C)nc2c1C(=O)O |  |  |  |  |  |  |  |  |  |  |  | 416% |
